Test results as given in patent US6737383B1, “Herbicidal oxadiazolidines” (priority 1999, dated 2004).

Legend:
pigweed = test: Test B pre/postemergence pigweed; type: in vivo, Amaranthus retroflexus
In short: (§1)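 Test chemicals in a non-phytotoxic solvent mixture with surfactant were sprayed preemergence onto planted seeds and postemergence onto plants 2 to 18 cm tall (1- to 4-leaf stage). After twelve to sixteen days in a greenhouse, injury was visually rated against untreated controls from 0 (no effect) to 10 (complete control).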

morningglory = test: Test B pre/postemergence morningglory; type: in vivo, Ipomoea hederacea
In short: as §1

giant foxtail = test: Test B pre/postemergence giant foxtail; type: in vivo, Setaria faberii
In short: as §1

cocklebur = test: Test B pre/postemergence cocklebur; type: in vivo, Xanthium strumarium
In short: as §1

velvetleaf = test: Test B pre/postemergence velvetleaf; type: in vivo, Abutilon theophrasti
In short: as §1

rice = test: Test B flood test rice; type: in vivo, Oryza sativa
In short: (§2)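 Plants were grown to the 2-leaf stage before treatment with test chemical, then held in a greenhouse for twelve to sixteen days. Injury was visually rated against untreated controls on a 0–10 scale, where 0 is no effect and 10 is complete control.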

blackgrass = test: Test B pre/postemergence blackgrass; type: in vivo, Alopecurus myosuroides
In short: as §1

rape = test: Test B pre/postemergence rape; type: in vivo, Brassica napus
In short: as §1

wheat = test: Test B pre/postemergence wheat; type: in vivo, Triticum aestivum
In short: as §1

purple nutsedge = test: Test B pre/postemergence purple nutsedge; type: in vivo, Cyperus rotundus; details: Postemergence
In short: as §1

duck salad = test: Test B flood test duck salad; type: in vivo, Heteranthera limosa
In short: as §2

soybean = test: Test B pre/postemergence soybean; type: in vivo, Glycine max
In short: as §1

corn = test: Test B pre/postemergence corn; type: in vivo, Zea mays
In short: as §1

crabgrass = test: Test B pre/postemergence crabgrass; type: in vivo, Digitaria sanguinalis
In short: as §1

smallflower flatsedge = test: Test B flood test smallflower flatsedge; type: in vivo, Cyperus difformis
In short: as §2

sugar beet = test: Test B pre/postemergence sugar beet; type: in vivo, Beta vulgaris
In short: as §1

[1] = Preemergence, Rate 62 g/ha, scale of 0 to 10 where 0 is no effect and 10 is complete control
[2] = Preemergence, Rate 250 g/ha, scale of 0 to 10 where 0 is no effect and 10 is complete control
[3] = Preemergence, Rate 500 g/ha, scale of 0 to 10 where 0 is no effect and 10 is complete control
[4] = Rate 62 g/ha, Postemergence, scale of 0 to 10 where 0 is no effect and 10 is complete control
[5] = Rate 125 g/ha, Postemergence, scale 0 to 10
[6] = Rate 125 g/ha, Preemergence, scale of 0 to 10 where 0 is no effect and 10 is complete control
[7] = Rate 500 g/ha, Postemergence, scale 0 to 10, 0 no effect, 10 complete control
[8] = Rate 62 g/ha, headed Pre-emergence (flood test species), scale 0 to 10 (0 no effect, 10 complete control)
[9] = Rate 125 g/ha, Pre-emergence, flood test species, scale 0 to 10 where 0 is no effect and 10 is complete control
[10] = Rate 250 g/ha, Pre-emergence, flood-test species, scale 0 to 10, 0 is no effect, 10 is complete control
[11] = Rate 500 g/ha, Pre-emergence, flood test species, scale 0 to 10 (0 no effect, 10 complete control)

Cc1ccccc1N(C(=O)n1oc(=O)n(-c2ccccc2C)c1=O)C(C)C [Compound 236]
1: Plant response rating (0 to 10; 0 is no effect, 10 is complete control), Velvetleaf (velvetleaf; Rate 250 g/ha, Postemergence) | Soybean plant response rating (soybean; [4]) | Soybean plant response rating (soybean; [5])
5: Plant response rating (0 to 10; 0 is no effect, 10 is complete control), Morningglory (morningglory; Rate 250 g/ha, Postemergence) | Blackgrass plant response rating (blackgrass; [2]) | Plant response rating, Blackgrass (blackgrass; [3]) | Crabgrass plant response rating (crabgrass; [2]) | Plant response rating, Crabgrass (crabgrass; [3])
0: Redroot pigweed plant response rating (pigweed; [1]) | Redroot pigweed plant response rating (pigweed; [2]) | Plant response rating, Redroot pigweed (pigweed; [3]) | Redroot pigweed plant response rating (pigweed; [4]) | Redroot pigweed plant response rating (pigweed; [5]) | Redroot pigweed plant response rating (pigweed; [6]) | Plant response rating (0 to 10; 0 is no effect, 10 is complete control), Redroot pigweed (pigweed; Rate 250 g/ha, Postemergence) | Redroot pigweed plant response rating (pigweed; [7]) | Morningglory plant response rating (morningglory; [1]) | Morningglory plant response rating (morningglory; [2]) | Plant response rating, Morningglory (morningglory; [3]) | Morningglory plant response rating (morningglory; [6]) | Giant foxtail plant response rating (giant foxtail; [4]) | Giant foxtail plant response rating (giant foxtail; [5]) | Plant response rating (0 to 10; 0 is no effect, 10 is complete control), Giant foxtail (giant foxtail; Rate 250 g/ha, Postemergence) | Giant foxtail plant response rating (giant foxtail; [7]) | Cocklebur plant response rating (cocklebur; [1]) | Cocklebur plant response rating (cocklebur; [2]) | Plant response rating, Cocklebur (cocklebur; [3]) | Cocklebur plant response rating (cocklebur; [4]) | Cocklebur plant response rating (cocklebur; [5]) | Cocklebur plant response rating (cocklebur; [6]) | Plant response rating (0 to 10; 0 is no effect, 10 is complete control), Cocklebur (cocklebur; Rate 250 g/ha, Postemergence) | Cocklebur plant response rating (cocklebur; [7]) | Velvetleaf plant response rating (velvetleaf; [1]) | Velvetleaf plant response rating (velvetleaf; [2]) | Plant response rating, Velvetleaf (velvetleaf; [3]) | Velvetleaf plant response rating (velvetleaf; [4]) | Velvetleaf plant response rating (velvetleaf; [5]) | Velvetleaf plant response rating (velvetleaf; [6]) | Rice plant response rating (rice; [8]) | Rice plant response rating (rice; [9]) | Rice plant response rating (rice; [10]) | Rice plant response rating (rice; [11]) | Blackgrass plant response rating (blackgrass; [1]) | Blackgrass plant response rating (blackgrass; [4]) | Blackgrass plant response rating (blackgrass; [5]) | Plant response rating (0 to 10; 0 is no effect, 10 is complete control), Blackgrass (blackgrass; Rate 250 g/ha, Postemergence) | Blackgrass plant response rating (blackgrass; [7]) | Rape plant response rating (rape; [1]) | Rape plant response rating (rape; [2]) | Plant response rating, Rape (rape; [3]) | Rape plant response rating (rape; [4]) | Rape plant response rating (rape; [5]) | Rape plant response rating (rape; [6]) | Plant response rating (0 to 10; 0 is no effect, 10 is complete control), Rape (rape; Rate 250 g/ha, Postemergence) | Rape plant response rating (rape; [7]) | Wheat plant response rating (wheat; [1]) | Wheat plant response rating (wheat; [2]) | Plant response rating, Wheat (wheat; [3]) | Wheat plant response rating (wheat; [4]) | Wheat plant response rating (wheat; [5]) | Wheat plant response rating (wheat; [6]) | Plant response rating (0 to 10; 0 is no effect, 10 is complete control), Wheat (wheat; Rate 250 g/ha, Postemergence) | Wheat plant response rating (wheat; [7]) | Nutsedge plant response rating (purple nutsedge; Rate 62 g/ha, scale of 0 to 10 where 0 is no effect and 10 is complete control) | Nutsedge plant response rating (purple nutsedge; Rate 125 g/ha, scale 0 to 10) | Plant response rating (0 to 10; 0 is no effect, 10 is complete control), Nutsedge (purple nutsedge; Rate 250 g/ha) | Nutsedge plant response rating (purple nutsedge; Rate 500 g/ha, scale 0 to 10, 0 no effect, 10 complete control) | Ducksalad plant response rating (duck salad; [8]) | Ducksalad plant response rating (duck salad; [9]) | Ducksalad plant response rating (duck salad; [10]) | Ducksalad plant response rating (duck salad; [11]) | Soybean plant response rating (soybean; [1]) | Soybean plant response rating (soybean; [2]) | Plant response rating, Soybean (soybean; [3]) | Soybean plant response rating (soybean; [6]) | Corn plant response rating (corn; [1]) | Corn plant response rating (corn; [2]) | Plant response rating, Corn (corn; [3]) | Corn plant response rating (corn; [4]) | Corn plant response rating (corn; [5]) | Corn plant response rating (corn; [6]) | Plant response rating (0 to 10; 0 is no effect, 10 is complete control), Corn (corn; Rate 250 g/ha, Postemergence) | Corn plant response rating (corn; [7]) | Crabgrass plant response rating (crabgrass; [4]) | Crabgrass plant response rating (crabgrass; [5]) | Plant response rating (0 to 10; 0 is no effect, 10 is complete control), Crabgrass (crabgrass; Rate 250 g/ha, Postemergence) | Crabgrass plant response rating (crabgrass; [7]) | S. Flatsedge plant response rating (smallflower flatsedge; [8]) | S. Flatsedge plant response rating (smallflower flatsedge; [9]) | S. Flatsedge plant response rating (smallflower flatsedge; [10]) | S. Flatsedge plant response rating (smallflower flatsedge; [11]) | Sugarbeets plant response rating (sugar beet; [1]) | Sugarbeets plant response rating (sugar beet; [2]) | Plant response rating, Sugarbeets (sugar beet; [3]) | Sugarbeets plant response rating (sugar beet; [4]) | Sugarbeets plant response rating (sugar beet; [5]) | Sugarbeets plant response rating (sugar beet; [6]) | Plant response rating (0 to 10; 0 is no effect, 10 is complete control), Sugarbeets (sugar beet; Rate 250 g/ha, Postemergence) | Sugarbeets plant response rating (sugar beet; [7])
7: Giant foxtail plant response rating (giant foxtail; [1]) | Giant foxtail plant response rating (giant foxtail; [6])
9: Giant foxtail plant response rating (giant foxtail; [2])
10: Plant response rating, Giant foxtail (giant foxtail; [3])
4: Morningglory plant response rating (morningglory; [4]) | Morningglory plant response rating (morningglory; [5])
3: Velvetleaf plant response rating (velvetleaf; [7]) | Soybean plant response rating (soybean; [7]) | Crabgrass plant response rating (crabgrass; [6])
6: Morningglory plant response rating (morningglory; [7])
2: Blackgrass plant response rating (blackgrass; [6]) | Plant response rating (0 to 10; 0 is no effect, 10 is complete control), Soybean (soybean; Rate 250 g/ha, Postemergence) | Crabgrass plant response rating (crabgrass; [1])
